For one compound, Normal melting temperature results are on record in the NIST ThermoML archive (doi:10.1021/je1004966).

The conditions of the data set: Crystal; DTA.

± gives the expanded uncertainty stated by the source.

For `Cl.Cn1ccnc1` [1-methylimidazolium chloride], the Normal melting temperature was determined as 86.0 ± 1 °C.
